# Target: T1, Alpha-2A adrenergic receptor (Homo sapiens, UniProt P08913); further: in other assays of this panel Not Active means under 50% inhibition at 10 µM
# T1 sequence (P08913 whole entry): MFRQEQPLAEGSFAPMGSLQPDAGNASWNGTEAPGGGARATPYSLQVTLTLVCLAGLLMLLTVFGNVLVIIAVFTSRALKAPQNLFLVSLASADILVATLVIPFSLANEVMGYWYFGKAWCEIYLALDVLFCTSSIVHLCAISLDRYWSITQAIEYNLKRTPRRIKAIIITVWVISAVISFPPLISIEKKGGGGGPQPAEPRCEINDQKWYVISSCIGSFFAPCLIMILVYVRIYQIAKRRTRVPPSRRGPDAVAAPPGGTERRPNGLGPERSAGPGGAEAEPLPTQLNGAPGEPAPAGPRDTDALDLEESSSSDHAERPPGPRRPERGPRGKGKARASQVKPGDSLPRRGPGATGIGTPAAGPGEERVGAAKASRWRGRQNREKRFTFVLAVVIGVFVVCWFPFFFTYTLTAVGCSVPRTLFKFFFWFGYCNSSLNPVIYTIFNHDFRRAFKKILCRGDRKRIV
# Format: cell membranes, Sf9, Membrane
# Settings: sf9
Compound,IC50,Ki
Cc1cccc(C)c1NC(=O)C(C)N (stereo not given) [TOCAINIDE],Not Active,–
CCC(C)(C)C(=O)O[C@H]1C[C@@H](C)C=C2C=C[C@H](C)[C@H](CC[C@@H]3C[C@@H](O)CC(=O)O3)[C@H]21 [SIMVASTATIN],Not Active,–
Cc1ccc(Cl)c(Nc2ccccc2C(=O)O)c1Cl [MECLOFENAMIC ACID],Not Active,–
Cc1[nH]c(=O)c(C#N)cc1-c1ccncc1 [MILRINONE],Not Active,–
O=[As][O-].[Na+] [SODIUM ARSENITE],Not Active,–
CCOC(=O)C1=C(C)NC(C)=C(C(=O)OCC)C1c1ccccc1/C=C/C(=O)OC(C)(C)C [LACIDIPINE],Not Active,–
Cc1ccnc(NS(=O)(=O)c2ccc(N)cc2)n1 [SULFAMERAZINE],Not Active,–
CC(C)(C)NC[C@H](O)COc1cccc2c1CCCC2=O [LEVOBUNOLOL],Not Active,–
LEAD(IV) ACETATE,Not Active,Not Active

# Target: D(1A) dopamine receptor (Homo sapiens, UniProt P21728)
# Sequence (P21728 whole entry): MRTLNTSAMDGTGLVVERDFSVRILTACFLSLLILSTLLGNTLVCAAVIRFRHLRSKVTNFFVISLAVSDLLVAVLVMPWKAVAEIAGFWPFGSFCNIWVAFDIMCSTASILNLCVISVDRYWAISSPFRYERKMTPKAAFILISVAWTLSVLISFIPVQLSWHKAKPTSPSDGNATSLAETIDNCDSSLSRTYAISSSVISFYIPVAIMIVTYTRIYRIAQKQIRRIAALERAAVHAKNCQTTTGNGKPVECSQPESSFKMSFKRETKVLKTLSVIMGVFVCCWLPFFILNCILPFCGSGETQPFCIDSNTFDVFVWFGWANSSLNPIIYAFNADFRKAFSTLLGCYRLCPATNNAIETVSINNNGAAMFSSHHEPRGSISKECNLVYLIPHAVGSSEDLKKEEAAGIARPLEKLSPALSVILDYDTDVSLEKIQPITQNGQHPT
# Assay: DRUGMATRIX: Dopamine D1 radioligand binding (ligand: [3H] SCH-23390)
# Format: cell membranes, CHO, Membrane
# Settings: cho; Not Active = under 50% inhibition at 10 µM
Compound,IC50,Ki
Cc1cccc(C)c1NC(=O)C(C)N (stereo not given) [TOCAINIDE],Not Active,–
CCC(C)(C)C(=O)O[C@H]1C[C@@H](C)C=C2C=C[C@H](C)[C@H](CC[C@@H]3C[C@@H](O)CC(=O)O3)[C@H]21 [SIMVASTATIN],Not Active,–
Cc1ccc(Cl)c(Nc2ccccc2C(=O)O)c1Cl [MECLOFENAMIC ACID],Not Active,–
Cc1[nH]c(=O)c(C#N)cc1-c1ccncc1 [MILRINONE],Not Active,–
O=[As][O-].[Na+] [SODIUM ARSENITE],Not Active,–
CCOC(=O)C1=C(C)NC(C)=C(C(=O)OCC)C1c1ccccc1/C=C/C(=O)OC(C)(C)C [LACIDIPINE],Not Active,–
Cc1ccnc(NS(=O)(=O)c2ccc(N)cc2)n1 [SULFAMERAZINE],Not Active,–
CC(C)(C)NC[C@H](O)COc1cccc2c1CCCC2=O [LEVOBUNOLOL],Not Active,–
LEAD(IV) ACETATE,Not Active,Not Active

# Target: D(3) dopamine receptor (Homo sapiens, UniProt P35462)
# Sequence (P35462 whole entry): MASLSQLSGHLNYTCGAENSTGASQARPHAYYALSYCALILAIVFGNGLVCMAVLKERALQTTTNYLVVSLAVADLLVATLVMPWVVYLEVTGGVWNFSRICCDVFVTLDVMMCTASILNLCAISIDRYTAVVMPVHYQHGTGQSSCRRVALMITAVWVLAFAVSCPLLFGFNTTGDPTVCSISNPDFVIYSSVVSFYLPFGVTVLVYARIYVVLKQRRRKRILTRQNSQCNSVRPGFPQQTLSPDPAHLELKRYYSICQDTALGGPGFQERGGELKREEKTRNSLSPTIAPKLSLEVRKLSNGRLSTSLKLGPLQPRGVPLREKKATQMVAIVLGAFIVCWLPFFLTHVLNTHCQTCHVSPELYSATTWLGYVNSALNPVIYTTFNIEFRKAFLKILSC
# Assay: DRUGMATRIX: Dopamine D3 radioligand binding (ligand: [3H] Spiperone)
# Format: cell membranes, CHO, Membrane
# Settings: cho
Compound,IC50,Ki
Cc1cccc(C)c1NC(=O)C(C)N (stereo not given) [TOCAINIDE],Not Active,–
CCC(C)(C)C(=O)O[C@H]1C[C@@H](C)C=C2C=C[C@H](C)[C@H](CC[C@@H]3C[C@@H](O)CC(=O)O3)[C@H]21 [SIMVASTATIN],Not Active,–
Cc1ccc(Cl)c(Nc2ccccc2C(=O)O)c1Cl [MECLOFENAMIC ACID],Not Active,–
Cc1[nH]c(=O)c(C#N)cc1-c1ccncc1 [MILRINONE],Not Active,–
O=[As][O-].[Na+] [SODIUM ARSENITE],Not Active,–
Cc1ccnc(NS(=O)(=O)c2ccc(N)cc2)n1 [SULFAMERAZINE],Not Active,–
CC(C)(C)NC[C@H](O)COc1cccc2c1CCCC2=O [LEVOBUNOLOL],Not Active,–
LEAD(IV) ACETATE,Not Active,Not Active

# Same assay, conditions: read-out: IC50
row,Compound,IC50
1,CCN(CC)C(=S)SSC(=S)N(CC)CC,1080 nM
2,CCOC(=O)C1=C(C)NC(C)=C(C(=O)OCC)C1c1ccccc1/C=C/C(=O)OC(C)(C)C [LACIDIPINE],6170 nM

# Same assay, conditions: read-out: Ki
row,Compound,Ki
1,CCN(CC)C(=S)SSC(=S)N(CC)CC,368 nM
2,CCOC(=O)C1=C(C)NC(C)=C(C(=O)OCC)C1c1ccccc1/C=C/C(=O)OC(C)(C)C [LACIDIPINE],2100 nM

# Target: Cytochrome P450 2E1 (Homo sapiens, UniProt P05181); further: in other assays of this panel Not Active means under 50% inhibition at 10 µM
# Sequence (P05181 whole entry): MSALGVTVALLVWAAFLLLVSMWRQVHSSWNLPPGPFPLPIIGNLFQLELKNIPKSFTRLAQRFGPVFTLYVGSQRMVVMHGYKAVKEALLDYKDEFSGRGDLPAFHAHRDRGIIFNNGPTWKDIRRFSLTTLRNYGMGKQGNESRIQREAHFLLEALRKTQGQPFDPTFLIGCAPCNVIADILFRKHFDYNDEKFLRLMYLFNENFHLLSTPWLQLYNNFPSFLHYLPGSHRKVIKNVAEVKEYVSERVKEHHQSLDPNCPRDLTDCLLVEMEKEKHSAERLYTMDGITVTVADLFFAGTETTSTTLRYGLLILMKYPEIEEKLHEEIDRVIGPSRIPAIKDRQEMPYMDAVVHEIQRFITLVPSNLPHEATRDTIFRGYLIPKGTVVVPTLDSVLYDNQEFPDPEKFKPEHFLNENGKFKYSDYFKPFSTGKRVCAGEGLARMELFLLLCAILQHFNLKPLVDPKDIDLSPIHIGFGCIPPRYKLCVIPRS
# Settings: bti-tn-5b1-4
Compound,IC50,Ki
CCN(CC)C(=S)SSC(=S)N(CC)CC,Not Active,Not Active
Cc1cccc(C)c1NC(=O)C(C)N (stereo not given) [TOCAINIDE],Not Active,Not Active
CN1C[C@H](CNC(=O)OCc2ccccc2)C[C@@H]2c3cccc4c3c(cn4C)C[C@H]21 [METERGOLINE],Not Active,Not Active
Cc1ccc(Cl)c(Nc2ccccc2C(=O)O)c1Cl [MECLOFENAMIC ACID],Not Active,Not Active
Cc1[nH]c(=O)c(C#N)cc1-c1ccncc1 [MILRINONE],Not Active,Not Active
O=[As][O-].[Na+] [SODIUM ARSENITE],Not Active,Not Active
CCOC(=O)C1=C(C)NC(C)=C(C(=O)OCC)C1c1ccccc1/C=C/C(=O)OC(C)(C)C [LACIDIPINE],Not Active,Not Active
Cc1ccnc(NS(=O)(=O)c2ccc(N)cc2)n1 [SULFAMERAZINE],Not Active,Not Active
CC(C)(C)NC[C@H](O)COc1cccc2c1CCCC2=O [LEVOBUNOLOL],Not Active,Not Active
LEAD(IV) ACETATE,Not Active,Not Active

# Target: T2, Estrogen receptor (Homo sapiens, UniProt P03372)
# T2 sequence (P03372 whole entry): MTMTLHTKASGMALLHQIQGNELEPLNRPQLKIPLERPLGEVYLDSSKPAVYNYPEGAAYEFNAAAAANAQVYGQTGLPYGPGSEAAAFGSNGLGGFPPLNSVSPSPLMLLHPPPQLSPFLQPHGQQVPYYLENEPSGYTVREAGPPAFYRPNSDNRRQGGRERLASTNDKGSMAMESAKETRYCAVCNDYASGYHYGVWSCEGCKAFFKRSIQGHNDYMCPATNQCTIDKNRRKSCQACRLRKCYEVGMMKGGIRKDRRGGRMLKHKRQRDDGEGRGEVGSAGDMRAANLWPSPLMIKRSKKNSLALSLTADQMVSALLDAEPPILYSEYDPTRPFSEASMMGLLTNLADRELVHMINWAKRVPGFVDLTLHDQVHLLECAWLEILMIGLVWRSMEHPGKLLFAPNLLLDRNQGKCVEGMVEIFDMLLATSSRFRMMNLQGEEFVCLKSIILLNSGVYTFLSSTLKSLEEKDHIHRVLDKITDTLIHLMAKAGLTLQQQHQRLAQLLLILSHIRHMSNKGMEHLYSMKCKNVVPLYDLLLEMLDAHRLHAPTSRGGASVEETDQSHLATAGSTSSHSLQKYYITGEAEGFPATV
# Settings: sf9
Compound,IC50,Ki
CCN(CC)C(=S)SSC(=S)N(CC)CC,Not Active,–
Cc1cccc(C)c1NC(=O)C(C)N (stereo not given) [TOCAINIDE],Not Active,–
CNCCCC12CCC(c3ccccc31)c1ccccc12 [MAPROTILINE],Not Active,–
CCC(C)(C)C(=O)O[C@H]1C[C@@H](C)C=C2C=C[C@H](C)[C@H](CC[C@@H]3C[C@@H](O)CC(=O)O3)[C@H]21 [SIMVASTATIN],Not Active,–
CN1C[C@H](CNC(=O)OCc2ccccc2)C[C@@H]2c3cccc4c3c(cn4C)C[C@H]21 [METERGOLINE],Not Active,–
Cc1ccc(Cl)c(Nc2ccccc2C(=O)O)c1Cl [MECLOFENAMIC ACID],Not Active,–
Cc1[nH]c(=O)c(C#N)cc1-c1ccncc1 [MILRINONE],Not Active,–
O=[As][O-].[Na+] [SODIUM ARSENITE],Not Active,–
CCOC(=O)C1=C(C)NC(C)=C(C(=O)OCC)C1c1ccccc1/C=C/C(=O)OC(C)(C)C [LACIDIPINE],Not Active,–
Cc1ccnc(NS(=O)(=O)c2ccc(N)cc2)n1 [SULFAMERAZINE],Not Active,–
CC(C)(C)NC[C@H](O)COc1cccc2c1CCCC2=O [LEVOBUNOLOL],Not Active,–
LEAD(IV) ACETATE,Not Active,Not Active

# Target: Estrogen receptor beta (Homo sapiens, UniProt Q92731); further: in other assays of this panel Not Active means under 50% inhibition at 10 µM
# Sequence (Q92731 whole entry): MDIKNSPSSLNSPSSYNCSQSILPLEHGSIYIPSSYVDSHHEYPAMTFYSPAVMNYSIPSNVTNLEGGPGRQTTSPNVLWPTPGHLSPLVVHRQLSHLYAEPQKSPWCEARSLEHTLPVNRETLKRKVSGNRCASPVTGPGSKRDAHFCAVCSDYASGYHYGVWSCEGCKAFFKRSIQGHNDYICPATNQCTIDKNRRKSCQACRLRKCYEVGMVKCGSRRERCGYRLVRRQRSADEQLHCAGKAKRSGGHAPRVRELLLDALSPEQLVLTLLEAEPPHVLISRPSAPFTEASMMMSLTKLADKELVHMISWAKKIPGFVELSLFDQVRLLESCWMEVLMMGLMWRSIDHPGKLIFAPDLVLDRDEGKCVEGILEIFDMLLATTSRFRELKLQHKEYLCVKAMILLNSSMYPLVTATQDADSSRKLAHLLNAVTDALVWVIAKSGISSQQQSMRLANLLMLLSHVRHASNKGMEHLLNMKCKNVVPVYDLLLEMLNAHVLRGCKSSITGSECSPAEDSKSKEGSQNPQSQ
# Settings: sf9
Compound,IC50,Ki
CCN(CC)C(=S)SSC(=S)N(CC)CC,Not Active,–
Cc1cccc(C)c1NC(=O)C(C)N (stereo not given) [TOCAINIDE],Not Active,–
CNCCCC12CCC(c3ccccc31)c1ccccc12 [MAPROTILINE],Not Active,–
CCC(C)(C)C(=O)O[C@H]1C[C@@H](C)C=C2C=C[C@H](C)[C@H](CC[C@@H]3C[C@@H](O)CC(=O)O3)[C@H]21 [SIMVASTATIN],Not Active,–
CN1C[C@H](CNC(=O)OCc2ccccc2)C[C@@H]2c3cccc4c3c(cn4C)C[C@H]21 [METERGOLINE],Not Active,–
Cc1ccc(Cl)c(Nc2ccccc2C(=O)O)c1Cl [MECLOFENAMIC ACID],Not Active,–
Cc1[nH]c(=O)c(C#N)cc1-c1ccncc1 [MILRINONE],Not Active,–
O=[As][O-].[Na+] [SODIUM ARSENITE],Not Active,–
CCOC(=O)C1=C(C)NC(C)=C(C(=O)OCC)C1c1ccccc1/C=C/C(=O)OC(C)(C)C [LACIDIPINE],Not Active,–
CC(C)(C)NC[C@H](O)COc1cccc2c1CCCC2=O [LEVOBUNOLOL],Not Active,–
LEAD(IV) ACETATE,Not Active,Not Active

# Target: T3, Glucocorticoid receptor (Homo sapiens, UniProt P04150); further: in other assays of this panel Not Active means under 50% inhibition at 10 µM
# T3 sequence (P04150 whole entry): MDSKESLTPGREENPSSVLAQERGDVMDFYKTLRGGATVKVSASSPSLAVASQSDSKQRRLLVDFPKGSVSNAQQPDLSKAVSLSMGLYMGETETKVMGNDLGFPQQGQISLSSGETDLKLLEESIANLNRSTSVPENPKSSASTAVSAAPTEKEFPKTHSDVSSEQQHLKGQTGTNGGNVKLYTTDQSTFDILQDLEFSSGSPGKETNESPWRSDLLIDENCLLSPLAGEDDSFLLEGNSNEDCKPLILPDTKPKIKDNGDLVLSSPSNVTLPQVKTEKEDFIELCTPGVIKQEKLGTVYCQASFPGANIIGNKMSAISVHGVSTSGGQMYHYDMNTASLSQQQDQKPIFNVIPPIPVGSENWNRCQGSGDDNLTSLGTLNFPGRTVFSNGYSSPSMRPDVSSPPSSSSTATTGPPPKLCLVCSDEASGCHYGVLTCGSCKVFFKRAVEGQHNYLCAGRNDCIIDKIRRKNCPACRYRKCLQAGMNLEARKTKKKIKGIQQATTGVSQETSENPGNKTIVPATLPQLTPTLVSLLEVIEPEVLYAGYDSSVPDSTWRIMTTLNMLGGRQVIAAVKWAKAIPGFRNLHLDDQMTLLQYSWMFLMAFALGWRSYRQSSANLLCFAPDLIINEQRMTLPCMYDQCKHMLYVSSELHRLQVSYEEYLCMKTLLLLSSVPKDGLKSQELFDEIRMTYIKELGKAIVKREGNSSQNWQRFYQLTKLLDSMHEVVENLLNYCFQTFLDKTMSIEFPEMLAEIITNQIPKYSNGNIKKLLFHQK
# Settings: hela s3
Compound,IC50,Ki
CCN(CC)C(=S)SSC(=S)N(CC)CC,Not Active,–
Cc1cccc(C)c1NC(=O)C(C)N (stereo not given) [TOCAINIDE],Not Active,–
CNCCCC12CCC(c3ccccc31)c1ccccc12 [MAPROTILINE],Not Active,–
CCC(C)(C)C(=O)O[C@H]1C[C@@H](C)C=C2C=C[C@H](C)[C@H](CC[C@@H]3C[C@@H](O)CC(=O)O3)[C@H]21 [SIMVASTATIN],Not Active,–
CN1C[C@H](CNC(=O)OCc2ccccc2)C[C@@H]2c3cccc4c3c(cn4C)C[C@H]21 [METERGOLINE],Not Active,–
Cc1ccc(Cl)c(Nc2ccccc2C(=O)O)c1Cl [MECLOFENAMIC ACID],Not Active,–
O=[As][O-].[Na+] [SODIUM ARSENITE],Not Active,–
CCOC(=O)C1=C(C)NC(C)=C(C(=O)OCC)C1c1ccccc1/C=C/C(=O)OC(C)(C)C [LACIDIPINE],Not Active,–
Cc1ccnc(NS(=O)(=O)c2ccc(N)cc2)n1 [SULFAMERAZINE],Not Active,–
CC(C)(C)NC[C@H](O)COc1cccc2c1CCCC2=O [LEVOBUNOLOL],Not Active,–
LEAD(IV) ACETATE,Not Active,Not Active
